The target of one series is T1, human histamine H3 receptor (Homo sapiens, UniProt Q9Y5N1).
T1 construct: One microgram of supercoiled H3 receptor cDNA was added to the cells and mixed; expressed in transfected cells; membranes
T1 sequence (Q9Y5N1 whole entry): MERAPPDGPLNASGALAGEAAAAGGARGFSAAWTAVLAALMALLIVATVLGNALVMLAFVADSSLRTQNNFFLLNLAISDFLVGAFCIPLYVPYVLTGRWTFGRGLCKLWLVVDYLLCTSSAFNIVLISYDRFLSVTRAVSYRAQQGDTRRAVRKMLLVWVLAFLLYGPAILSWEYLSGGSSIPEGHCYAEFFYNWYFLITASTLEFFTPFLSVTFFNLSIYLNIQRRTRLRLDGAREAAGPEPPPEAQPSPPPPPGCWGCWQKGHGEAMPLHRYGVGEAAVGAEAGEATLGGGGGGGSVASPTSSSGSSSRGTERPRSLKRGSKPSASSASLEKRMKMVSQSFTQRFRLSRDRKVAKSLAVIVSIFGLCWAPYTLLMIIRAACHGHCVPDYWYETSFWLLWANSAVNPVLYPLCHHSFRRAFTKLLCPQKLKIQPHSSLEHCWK
Description: [3H]-N-methylhistamine binding. The following applies: [3H]-N-methylhistamine 0.8 nM, membranes of H3 receptor-expressing SK-N-MC cells. Summed up: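 Membranes from SK-N-MC cells stably transfected with human H3 receptor, incubated 45 min at 25° C. with 0.8 nM [3H]-N-methylhistamine in Tris/EDTA pH 7.4. Filtration and scintillation counting; 10 μM histamine defined non-specific binding. Ki from IC50 via Cheng-Prusoff (Kd 800 pM, [L] 800 pM).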
In general, Ki refers to a measure of affinity in units of concentration, obtained from inhibition or displacement. Consider `O=C(CCCCN1CCCCC1)Nc1ccc([C@@H]2CC[C@@H]3CCCCN32)cc1` (relative stereo) [Example 112, trans-3-[4-(N-5-Piperidylpentanamido)phenyl]octahydroindolizine], for which the Ki was 2.1 nM.
`CN(CCCCCN1CCCCC1)c1ccc([C@@H]2CC[C@@H]3CCCCN32)cc1` (relative stereo) [Example 114, trans-3-[4-(N-Methyl-N-5-piperidylpentylamino)phenyl]octahydroindolizine] yielded a Ki of 9 nM.
Same read-out and setting: for `c1cc([C@@H]2CC[C@@H]3CCCCN32)ccc1NCCCCCN1CCCCC1` (relative stereo) [Example 115, trans-3-[4-(N-5-Piperidylpentylamino)phenyl]octahydroindolizine] the value was 0.7 nM; for `O=S(=O)(Nc1ccc([C@@H]2CC[C@@H]3CCCCN32)cc1)C1CCCNC1` (relative stereo) [Example 117, trans-3-[4-(3-Piperidylsulfonylamino)phenyl]octahydroindolizine], 4 nM.
The same measure, in the same setting: for `CN(c1ccc([C@@H]2CC[C@@H]3CCCCN32)cc1)S(=O)(=O)C1CCCNC1` (relative stereo) [Example 118, trans-3-[4-(3-Piperidylsulfonyl-N-methylamino)phenyl]octahydroindolizine] the value was 61 nM; for `CN(c1ccc([C@@H]2CC[C@@H]3CCCCN32)cc1)S(=O)(=O)CCN1CCCCC1` (relative stereo) [Example 121, trans-3-{4-[(2-Piperidylethyl)sulfonyl-N-methylamino]phenyl}octahydroindolizine], 19 nM; for `OC(c1ccncc1)c1ccc([C@H]2CC[C@H]3CCCCN32)cc1` (stereo partly drawn) [Example 24, trans-3-[4-(4-Pyridylmethan-1-ol)phenyl]octahydroindolizine], 82 nM.
In the case of `c1cc(Sc2ccc(C3CCCC4CCCCN43)cc2)ccn1` (stereo not shown) [Example 25, 4-[4-(4-Pyridylthio)phenyl]octahydoquinolizine], the affinity, expressed as Ki, was 305 nM.
The same measure, in the same setting: for `CS(=O)(=O)Nc1cccc(-c2ccc([C@H]3CC[C@H]4CCCCN43)cc2)c1` [Example 55, tran-3-[4-(3-Methylsulfonylaminophenyl)phenyl]octahydroindolizine] the value was 320 nM; for `c1cc([C@@H]2CCC[C@@H]3CCCN32)ccc1OCCCCCN1CCCCC1` [Example 65], 1 nM; for `c1cc(C2CC3CCCCN3C2)ccc1OCCCN1CCCCC1` (stereo not drawn) [Example 69, syn-2-[4-(3-Piperidinylpropanoxy)phenyl]octahydroindolizine], 0.2 nM.
For `c1cc([C@H]2CC[C@H]3CCCCN32)ccc1OCCC1CCCCN1` (stereo partly drawn) [Example 86, trans-3-[4-(2,2′-piperidinylethoxy)phenyl]octahydroindolizine], the Ki worked out at 90 nM.
On the same count and under the same terms, as for `c1cc([C@H]2CC[C@H]3CCCCN32)ccc1OCCCN1CCCCC1` [Example 93, (R, R)-3-(4-(3-Piperidinylpropoxy)phenyl)octahydroindolizine], the figure is 0.06 nM; as for `c1cc([C@@H]2CC[C@@H]3CCCCN32)ccc1OCCCN1CCCCC1` [Example 94, (S, S)-3-(4-(3-Piperidinylpropoxy)phenyl)octahydroindolizine], 0.06 nM.
The same measure, in the same setting: as for `c1cc(Sc2ccc(C3CCC4CCCCN43)cc2)ccn1` (stereo not shown) [Example 136, Octahydro-3-[4-(4-pyridinylthio)phenyl]indolizine], the figure is 7.5 nM; as for `c1cc(Sc2ccc([C@H]3CC[C@H]4CCCCN43)cc2)ccn1` [Example 137, (R, R)-Octahydro-3-[4-(4-pyridinylthio)phenyl]indolizine], 3.8 nM; as for `c1cc(Sc2ccc([C@@H]3CC[C@@H]4CCCCN43)cc2)ccn1` [Example 138, (S, S)-Octahydro-3-[4-(4-pyridinylthio)phenyl]indolizine], 100 nM.
`c1cc(C2CCC3CCCN32)ccc1OCCCN1CCCCC1` (stereo not shown) [Example 140, 3-[4-(Piperidinylpropoxy)phenyl]hexahydro-1H-pyrrolizine] registered a Ki of 0.6 nM.
Still for that read-out and setting: as for “N-Methyl-N-[4-(trans-Octahydro-3-indolizinyl)phenyl]-3-piperidinylpropenamide [Example 109]”, the figure is 1 nM; as for “trans-3-[4-(Vinylsulfonylamino)phenyl]octahydroindolizine [Example 119]”, over 5000 nM; as for “trans-3-{4-[(2-Pyrrolidylethyl)sulfonylamino]phenyl}octahydroindolizine [Example 122]”, 534 nM.

System in another series: not given
Test: not given
Settings: not given
By melting point is commonly meant the temperature, or range, at which the solid turns liquid. Consider `Brc1cccc([C@H]2CC[C@H]3CCCCN32)c1` (racemic), for which the melting point lay in the range of 195 to 198 °C.
